Assay [1] concerns Hep 3B2. Description: Induction of human erythropoietin gene expression in human Hep3B cells over expressing human EPO assessed as concentration required to produce 5-fold induction ratio by luciferase reporter gene assay relative to control. It is filed as functional. In general terms: A reporter such as luciferase makes a cellular process visible.
The subject of assay [2] is Hep 3B2. Description: Induction of human erythropoietin gene expression in human Hep3B cells over expressing human EPO assessed as maximum induction ratio at 4.3 uM by luciferase reporter gene assay relative to control. It counts as functional.
For assay [3], the system named is Hep 3B2. Description: Induction of erythropoietin secretion in human Hep3B cells expressing human EPO at 10 uM by ELISA. It is filed as functional. A general note: In an ELISA, binding on a coated surface is turned into a signal by an enzyme label.
Assay [4] can be described thus: Cytotoxicity against human Hep3B cells after 48 hrs by MTT assay. It is filed as functional, Hep 3B2.
Assay [5] has as its system Hep 3B2. Description: Induction of human erythropoietin gene expression in human Hep3B cells over expressing human EPO assessed as maximum induction ratio at 6.5 uM by luciferase reporter gene assay relative to control. It is filed as functional.

Structures are written as SMILES.

By IC90 is commonly meant the concentration needed for an effect of 90%. Low values mean greater potency, high ones weaker potency.

Turning to `Cc1cc(=O)c(O)cc2c1C[C@H]1CC(C)(C)/C=C/C[C@@]3(C)Oc4cc(O)cc(C)c4C[C@@H]3C[C@H](O)[C@]1(C)O2` [EPOLONE A], the results for the Activity in assay [1] and in assay [3] were 1 µM and 45 mU/ml, respectively. The Ratio in assay [2] is 26. Further, in assay [4], the concentration for an effect of 90% (IC90) is over 40 µM.

Take `C/C1=C\CC(C)(C)/C=C/C[C@@]2(C)Oc3cc(O)c(=O)cc(C)c3C[C@@H]2C[C@H]1O` [EPOLONE B]: the Activity in assay [1] came out at 1.5 µM; in assay [3], 40 mU/ml. The same molecule had an IC90 in assay [4] of over 40 µM. Besides, in assay [5], the Ratio turned out to be 22.

In the case of `Cc1cc(=O)c(O)cc2c1C[C@H]1CC(C)(C)/C=C/C[C@@]3(C)Oc4cc(O)c(=O)cc(C)c4C[C@@H]3C[C@H](O)[C@]1(C)O2` [PYCNIDIONE], the Activity in assay [1] is 1.6 µM; in assay [3] it was 34 mU/ml. Further, in assay [2], the Ratio was 19. The 90% effect concentration (IC90) in assay [4] is over 40 µM.
